Source: US7566736B2, “Substituted indoles, compositions containing them, method for the production thereof and their use” (Aventis Pharma S.A., priority 2004, dated 2009)

Key:
human KDR enzyme = biological target: T1, human KDR enzyme (Homo sapiens, UniProt P35968); test: phosphorylation of substrate by the KDR enzyme in vitro, scintillation technique; assay type: biochemical; settings: read-out: KDR IC 50
T1 construct: The cytoplasmic domain of the human KDR enzyme was cloned in the form of a GST fusion; GST; made in house; host or cells: SF21 insect cells (baculovirus, pFastBac)
Method: The inhibitory effect of the compounds is determined in an assay for phosphorylation of substrate by the KDR enzyme in vitro using a scintillation technique (96-well plate, NEN).
The cytoplasmic domain of the human KDR enzyme was cloned in the form of a GST fusion into the baculovirus expression vector pFastBac. The protein was expressed in SF21 cells and purified to approximately 60% homogeneity.
The kinase activity of KDR is measured in 20 mM MOPS, 10 mM MgCl2, 10 mM MnCl2, 1 mM DTT, 2.5 mM EGTA, 10 mM β-glycerophosphate, pH=7.2, in the presence of 10 mM MgCl2, 100 μM Na3VO4, 1 mM NaF. 10 μl of the compound are added to 70 μl of kinase buffer containing 100 ng of KDR enzyme at 4° C. The reaction is initiated by adding 20 μl of solution containing 2 μg of substrate (SH2-SH3 fragment of PLCγ expressed in the form of a GST fusion protein), 2 μCi γ ^33P[ATP] and 2 μM cold ATP. After incubation at 37° C. for 1 hour, the reaction is stopped by adding 1 volume (100 μl) of 200 mM EDTA. The incubation buffer is removed and the wells are washed three times with 300 μl of PBS. The radioactivity is measured in each well using a Top Count NXT radioactivity counter (Packard).
The background noise is determined by measuring the radioactivity in four different wells containing the radioactive ATP and the substrate alone.
A control for total activity is measured in four different wells containing all the reactants (γ^33P-[ATP], KDR and PLCY substrate) but in the absence of compound.
The inhibition of the KDR activity with the compound of the invention is expressed as percentage inhibition of the control activity determined in the absence of compound.
The compound SU5614 (Calbiochem) (1 μM) is included in each plate as an inhibition control.

human Tie2 = biological target: T2, human Tie2 (Homo sapiens, UniProt Q02763); test: phosphorylation of PLC by Tie2 (GST-Tie2), FlashPlate; assay type: biochemical; settings: read-out: TIE2 IC 50
T2 construct: corresponding to the intracellular domain amino acids 776-1124 was generated by PCR; made in house; host or cells: baculovirus expression vector pFastBacGT
Method: The human Tie2 coding sequence corresponding to the intracellular domain amino acids 776-1124 was generated by PCR using the cDNA isolated from human placenta as a model. This sequence was introduced into a baculovirus expression vector pFastBacGT in the form of a GST fusion protein.
The inhibitory effect of the molecules is determined in an assay for phosphorylation of PLC by Tie2 in the presence of GST-Tie2 purified to approximately 80% homogeneity. The substrate is made up of the SH2-SH3 fragments of PLC expressed in the form of a GST fusion protein.
The kinase activity of Tie2 is measured in a 20 mM MOPS buffer, pH 7.2, containing 10 mM MgCl2, 10 mM MnCl2, 1 mM DTT and 10 mM of glycerophosphate. A reaction mixture made up to 70 μl of kinase buffer containing 100 ng of GST-Tie2 enzyme is deposited into each well of a 96-well FlashPlate kept on ice. 10 μl of the test molecule diluted in DMSO at a maximum concentration of 10% are then added. For a given concentration, each measurement is determined in quadruplicate. The reaction is initiated by adding 20 μl of solution containing 2 μg of GST-PLC, 2 μM of cold ATP and 1 μCi of ^33P [ATP]. After incubation at 37° C. for 1 hour, the reaction is stopped by adding 1 volume (100 μl) of 200 mM EDTA. After the incubation buffer has been removed, the wells are washed three times with 300 μl of PBS. The radioactivity is measured on a Wallac MicroBeta 1450.
The inhibition of the Tie2 activity is calculated and expressed as percentage inhibition with respect to the control activity determined in the absence of compound.

FAK = FAK (Homo sapiens, UniProt Q05397); test: FAK inhibition; assay type: biochemical
FAK, sequence (Q05397 whole entry, species assumed): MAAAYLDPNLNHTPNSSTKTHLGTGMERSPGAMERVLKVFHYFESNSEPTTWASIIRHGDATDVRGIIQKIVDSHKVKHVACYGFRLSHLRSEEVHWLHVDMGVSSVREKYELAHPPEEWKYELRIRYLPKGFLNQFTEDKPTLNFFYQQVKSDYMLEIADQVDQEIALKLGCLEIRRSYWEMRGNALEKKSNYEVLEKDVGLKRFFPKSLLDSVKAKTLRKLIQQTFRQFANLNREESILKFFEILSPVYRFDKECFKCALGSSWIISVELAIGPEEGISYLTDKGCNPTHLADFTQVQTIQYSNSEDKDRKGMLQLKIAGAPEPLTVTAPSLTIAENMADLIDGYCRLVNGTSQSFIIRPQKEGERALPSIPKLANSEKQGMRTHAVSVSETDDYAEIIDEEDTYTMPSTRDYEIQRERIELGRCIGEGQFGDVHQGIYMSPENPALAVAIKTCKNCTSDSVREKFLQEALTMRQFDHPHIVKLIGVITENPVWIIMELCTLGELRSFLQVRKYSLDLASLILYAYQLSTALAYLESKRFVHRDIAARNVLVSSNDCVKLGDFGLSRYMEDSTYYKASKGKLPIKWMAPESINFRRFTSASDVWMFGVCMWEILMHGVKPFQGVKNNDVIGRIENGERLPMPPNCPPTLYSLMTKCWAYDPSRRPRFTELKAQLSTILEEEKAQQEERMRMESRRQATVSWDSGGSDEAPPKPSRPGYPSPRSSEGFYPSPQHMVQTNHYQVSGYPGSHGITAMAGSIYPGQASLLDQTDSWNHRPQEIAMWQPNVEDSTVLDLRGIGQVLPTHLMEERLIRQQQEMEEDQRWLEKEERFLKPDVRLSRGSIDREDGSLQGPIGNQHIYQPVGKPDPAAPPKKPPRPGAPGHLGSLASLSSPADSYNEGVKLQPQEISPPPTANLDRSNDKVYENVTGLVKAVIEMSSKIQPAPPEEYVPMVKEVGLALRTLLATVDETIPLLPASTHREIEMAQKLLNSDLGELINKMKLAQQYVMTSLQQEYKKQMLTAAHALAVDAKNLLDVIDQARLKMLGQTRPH

T1 sequence (P35968 786-1356 limits assumed): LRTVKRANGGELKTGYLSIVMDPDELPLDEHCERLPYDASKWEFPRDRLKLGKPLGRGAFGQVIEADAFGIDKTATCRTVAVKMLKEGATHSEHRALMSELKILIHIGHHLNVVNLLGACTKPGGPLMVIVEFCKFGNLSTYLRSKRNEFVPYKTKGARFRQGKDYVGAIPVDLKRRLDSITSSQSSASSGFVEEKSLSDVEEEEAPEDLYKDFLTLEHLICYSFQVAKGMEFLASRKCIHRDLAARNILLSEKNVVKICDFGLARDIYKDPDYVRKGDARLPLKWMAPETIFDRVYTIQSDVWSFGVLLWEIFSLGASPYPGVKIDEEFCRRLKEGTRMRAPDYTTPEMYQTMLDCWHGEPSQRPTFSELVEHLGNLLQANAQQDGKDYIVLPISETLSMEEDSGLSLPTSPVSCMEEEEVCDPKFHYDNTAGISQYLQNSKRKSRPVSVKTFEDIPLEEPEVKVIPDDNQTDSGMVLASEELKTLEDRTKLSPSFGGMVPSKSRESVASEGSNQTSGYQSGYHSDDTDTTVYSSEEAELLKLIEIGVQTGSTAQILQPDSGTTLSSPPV
T2 sequence (Q02763 776-1124): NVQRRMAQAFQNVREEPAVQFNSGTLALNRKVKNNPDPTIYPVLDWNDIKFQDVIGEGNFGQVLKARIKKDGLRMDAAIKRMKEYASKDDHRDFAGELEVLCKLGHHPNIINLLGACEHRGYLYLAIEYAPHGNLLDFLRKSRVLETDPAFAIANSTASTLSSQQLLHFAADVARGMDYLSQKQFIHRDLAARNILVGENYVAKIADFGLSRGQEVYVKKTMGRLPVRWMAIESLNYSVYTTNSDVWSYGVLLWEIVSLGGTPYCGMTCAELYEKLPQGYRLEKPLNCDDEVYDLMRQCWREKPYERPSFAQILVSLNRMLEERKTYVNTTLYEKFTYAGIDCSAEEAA

Structure (SMILES)	IC50 (human KDR enzyme) [nM]	IC50 (human Tie2) [nM]	melting point [°C]	IC50 (FAK) [nM]
NC(=O)c1[nH]c2ccccc2c1-c1ccc(NC(=O)Nc2cc(C(F)(F)F)ccc2F)cc1 [Example 1, 3-{4-[3-(2-Fluoro-5-trifluoromethylphenyl)-ureido]phenyl}-1H-indole-2-carboxamide]	35	3	240 to 242	–
NC(=O)c1[nH]c2cccnc2c1-c1ccc(NC(=O)Nc2cc(C(F)(F)F)ccc2F)cc1 [Example 2, 3-{4-[3-(2-Fluoro-5-trifluoromethylphenyl)-ureido]phenyl}-1H-pyrrolo[3,2-b]pyridine-2-carboxamide]	12	4	206 to 208	–
NC(=O)c1[nH]c2ccccc2c1-c1ccc(NC(=O)Nc2ccccc2)cc1 [Example 3, 3-[4-(3-Phenylureido)phenyl]-1H-indole-2-carboxamide]	1520	296	232 to 234	–
Cc1cccc(NC(=O)Nc2ccc(-c3c(C(N)=O)[nH]c4ccccc34)cc2)c1 [Example 4, 3-[4-(3-m-Tolylureido)phenyl]-1H-indole-2-carboxamide]	181	19	140 to 142	–
NC(=O)c1[nH]c2ccccc2c1-c1ccc(NC(=O)Nc2cccc(C(F)(F)F)c2)cc1 [Example 5, 3-[4-(3-Trifluoromethylphenylureido)phenyl]-1H-indole-2-carboxamide]	50	6	156 to 158	–
Cc1cc(C)cc(NC(=O)Nc2ccc(-c3c(C(N)=O)[nH]c4ccccc34)cc2)c1 [Example 6, 3-[4-(3,5-Dimethylphenylureido)phenyl]-1H-indole-2-carboxamide]	47	16	168 to 170	–
NC(=O)c1[nH]c2ccccc2c1-c1ccc(NC(=O)Nc2ccccc2F)cc1 [Example 7, 3-[4-(2-Fluorophenylureido)phenyl]-1H-indole-2-carboxamide]	1750	142	146 to 148	–
Cn1c(C(N)=O)c(-c2ccc(NC(=O)Nc3cc(C(F)(F)F)ccc3F)cc2)c2ccccc21 [Example 8, 3-{4-[3-(2-Fluoro-5-trifluoromethylphenyl)-ureido]phenyl}-1-methyl-1H-indole-2-carboxamide]	260	27	> 260	–
NC(=O)c1[nH]c2ccccc2c1-c1ccc(NC(=O)Nc2ccc(C(F)(F)F)c(Cl)c2)cc1 [Example 9, 3-{4-[3-(3-Chloro-4-trifluoromethylphenyl)-ureido]phenyl}-1H-indole-2-carboxamide]	138	17	168 to 170	–
CC(C)(C)c1cc(NC(=O)Nc2ccc(-c3c(C(N)=O)[nH]c4ccccc34)cc2)no1 [Example 10, 3-{4-[3-(5-tert-butylisoxazol-3-yl)ureido]-phenyl}-1H-indole-2-carboxamide]	37	3	176 to 178	303
NC(=O)c1[nH]c2ccccc2c1-c1ccc(NC(=O)Nc2ccc(OC(F)(F)F)cc2)cc1 [Example 11, 3-{4-[3-(4-Trifluoromethoxyphenyl)ureido]-phenyl}-1H-indole-2-carboxamide]	153	105	162 to 164	–
COc1ccc(C(F)(F)F)cc1NC(=O)Nc1ccc(-c2c(C(N)=O)[nH]c3ccccc23)cc1 [Example 12, 3-{4-[3-(2-Methoxy-5-trifluoromethylphenyl)ureido]phenyl}-1H-indole-2-carboxamide]	–	–	178 to 180	–
NC(=O)c1[nH]c2ccccc2c1-c1ccc(NS(=O)(=O)c2cc(C(F)(F)F)ccc2F)cc1 [Example 13, 3-[4-(2-Fluoro-5-trifluoromethylbenzenesulfonylamino)phenyl]-1H-indole-2-carboxamide]	–	–	176 to 178	–

Second part, the compound after the results:

IC50 (human KDR enzyme) [nM]	IC50 (human Tie2) [nM]	melting point [°C]	IC50 (FAK) [nM]	Structure (SMILES)
–	–	> 260	–	NC(=O)c1[nH]c2ccccc2c1-c1ccc(NS(=O)(=O)c2cccc(Cl)c2Cl)cc1 [Example 14, 3-[4-(2,3-Dichlorobenzenesulfonylamino)-phenyl]-1H-indole-2-carboxamide]
–	–	> 260	–	Cc1ccc(-n2nc(C(C)(C)C)cc2NC(=O)Nc2ccc(-c3c(C(N)=O)[nH]c4ccccc34)cc2)cc1 [Example 15, 3-{4-[3-(5-tert-Butyl-2-p-tolyl-2H-pyrazol-3-yl)ureido]phenyl}-1H-indole-2-carboxamide]
–	–	220	–	Cc1ccc(F)c(NC(=O)Nc2ccc(-c3c(C(N)=O)[nH]c4ccccc34)cc2)c1 [Example 16]
1890	220	–	–	NC(=O)c1[nH]c2ccccc2c1-c1ccc(NC(=O)Nc2cc(C(F)(F)F)ccc2CN2CCCC2)cc1 [Example 19, 3-{4-[3-(2-Pyrrolidin-1-ylmethyl-5-trifluoromethylphenyl)ureido]phenyl}-1H-indole-2-carboxamide]
234	59	–	–	COCc1ccc(C(F)(F)F)cc1NC(=O)Nc1ccc(-c2c(C(N)=O)[nH]c3ccccc23)cc1 [Example 20, 3-{4-[3-(2-Methoxymethyl-5-trifluoromethylphenyl)ureido]phenyl}-1H-indole-2-carboxamide]
195	32	–	–	NC(=O)c1[nH]c2ccc[n+]([O-])c2c1-c1ccc(NC(=O)Nc2cc(C(F)(F)F)ccc2F)cc1 [Example 21, 3-{4-[3-(2-Fluoro-5-trifluoromethylphenyl)-ureido]phenyl}-4-oxy-1H-pyrrolo[3,2-b]pyridine-2-carboxamide]
90	7	–	–	COCCOc1ccc2c(-c3ccc(NC(=O)Nc4cc(C(F)(F)F)ccc4F)cc3)c(C(N)=O)[nH]c2c1 [Example 23, 3-{4-[3-(2-Fluoro-5-trifluoromethylphenyl)-ureido]phenyl}-6-(2-methoxyethoxy)-1H-indole-2-carboxamide]
31	7	–	–	NC(=O)c1[nH]c2c(N)cccc2c1-c1ccc(NC(=O)Nc2cc(C(F)(F)F)ccc2F)cc1 [Example 30, 7-Amino-3-{4-[3-(2-fluoro-5-trifluoromethylphenyl)ureido]phenyl}-1H-indole-2-carboxamide]
75	6	–	–	NC(=O)c1[nH]c2c(NCCO)cccc2c1-c1ccc(NC(=O)Nc2cc(C(F)(F)F)ccc2F)cc1 [Example 31, 3-{4-[3-(2-Fluoro-5-trifluoromethylphenyl)-ureido]phenyl}-7-(2-hydroxyethylamino)-1H-indole-2-carboxamide]
144	28	–	–	CN(C)CC(=O)Nc1cccc2c(-c3ccc(NC(=O)Nc4cc(C(F)(F)F)ccc4F)cc3)c(C(N)=O)[nH]c12 [Example 32, 7-(2-Dimethylaminoacetylamino)-3-{4-[3-(2-fluoro-5-trifluoromethylphenyl)ureido]phenyl}-1H-indole-2-carboxamide]
199	291	–	–	NC(=O)c1[nH]c2ccccc2c1-c1ccc(NC(=O)Nc2ccc(OC(F)F)cc2)cc1 [Example 37, 3-{4-[3-(4-Difluoromethoxy-phenyl)ureido]phenyl}-1H-indole-2-carboxamide]
153	151	–	–	CC(C)c1ccc(NC(=O)Nc2ccc(-c3c(C(N)=O)[nH]c4ccccc34)cc2)cc1 [Example 53, 3-{4-[3-(4-Isopropyl-phenyl)ureido]phenyl}-1H-indole-2-carboxamide]
